Read-outs that look alike come from different tables or passages of the source.
Experiments:
[1] = biological target: T1, TF-VIIa (Homo sapiens, UniProt P08709); assay: TF-VIIa Assay; type: biochemical
T1 construct: 2nM recombinant human factor VIIa; purchased American Diagnostica, Greenwich CT; host or cells: soluble TF made in house in E. coli

[2] = biological target: Human factor Xa (Homo sapiens, UniProt P00742); assay: Xa Assay
[3] = cells given as a plain number (IC50); read-out: IC50 or % Inhibition TF-VIIa (30 µM)
[4] = read-out: IC50 or % Inhibition TF-VIIa (30 µM); cells given as a plain number (IC50)
[5] = read-out: IC50 or % Inhibition Factor Xa (30 µM), cells given as a plain number (IC50)
[6] = cells given as a plain number (IC50)

Chain of Human factor Xa (P00742 235-488 limits assumed): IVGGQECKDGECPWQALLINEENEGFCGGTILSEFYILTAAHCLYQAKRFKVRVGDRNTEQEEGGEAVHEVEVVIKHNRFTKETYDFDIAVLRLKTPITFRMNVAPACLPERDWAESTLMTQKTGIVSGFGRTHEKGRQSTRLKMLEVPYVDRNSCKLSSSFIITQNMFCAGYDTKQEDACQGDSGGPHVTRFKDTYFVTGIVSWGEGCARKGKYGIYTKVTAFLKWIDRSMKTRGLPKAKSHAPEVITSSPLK
Chain of Human factor Xa (P00742 41-179 limits assumed): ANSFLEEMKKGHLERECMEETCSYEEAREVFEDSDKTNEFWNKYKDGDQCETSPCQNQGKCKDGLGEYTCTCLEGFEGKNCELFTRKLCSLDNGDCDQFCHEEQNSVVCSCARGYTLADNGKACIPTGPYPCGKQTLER
T1 sequence (P08709 213-466 limits assumed): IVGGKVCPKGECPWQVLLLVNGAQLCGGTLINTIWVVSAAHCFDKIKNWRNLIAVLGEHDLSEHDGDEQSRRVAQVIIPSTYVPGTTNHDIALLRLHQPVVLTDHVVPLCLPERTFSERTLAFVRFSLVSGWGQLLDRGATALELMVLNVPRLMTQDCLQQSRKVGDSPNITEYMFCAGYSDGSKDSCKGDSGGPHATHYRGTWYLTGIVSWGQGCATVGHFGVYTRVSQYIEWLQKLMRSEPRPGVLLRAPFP
T1 sequence (P08709 61-212 limits assumed): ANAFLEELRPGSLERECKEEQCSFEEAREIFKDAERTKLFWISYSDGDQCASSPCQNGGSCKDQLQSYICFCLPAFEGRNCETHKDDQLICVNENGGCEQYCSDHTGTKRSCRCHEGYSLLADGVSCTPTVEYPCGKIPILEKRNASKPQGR
T1 sequence (P13726 33-251 partner limits assumed): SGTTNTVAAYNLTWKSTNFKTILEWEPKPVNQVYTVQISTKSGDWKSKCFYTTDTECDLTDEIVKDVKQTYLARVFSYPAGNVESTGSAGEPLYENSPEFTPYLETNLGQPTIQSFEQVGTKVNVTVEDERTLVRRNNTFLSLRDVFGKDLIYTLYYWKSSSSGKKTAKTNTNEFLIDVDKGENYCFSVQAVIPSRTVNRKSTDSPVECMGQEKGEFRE

SMILES | IC50 or % Inhibition Factor Xa (30 µM) ([2]; % inhibition at 30 µM) [%] | IC50 [1, 4] [µM] | IC50 [2, 5] [µM] | also measured
N=C(N)c1ccc(CNC(=O)Cn2c(-c3ccccc3)c(Cl)nc(NCc3ccc(OC(F)(F)F)cc3)c2=O)cc1 [1507-04] |  | 29.5 | > 30 | 
N=C(N)c1ccc(CNC(=O)Cn2c(-c3ccccc3)c(Cl)nc(NCc3ccc(Cl)cc3Cl)c2=O)cc1 [1507-22] |  |  | > 30 | IC50 or % Inhibition TF-VIIa (30 µM) [1]: 45%
N=C(N)c1ccc(CNC(=O)Cn2c(-c3ccccc3)c(Cl)nc(NC3CCCC3)c2=O)cc1 [1507-25] |  | 1.6 | > 30 | 
N=C(N)c1ccc(CNC(=O)Cn2c(-c3ccccc3)c(Cl)nc(NCc3ccc(F)cc3F)c2=O)cc1 [1507-26] |  | 20.5 | > 30 | 
N=C(N)c1ccc(CNC(=O)Cn2c(-c3ccccc3)c(Cl)nc(NC3CCCCCC3)c2=O)cc1 [1507-29] | 4 |  |  | IC50 [1, 3]: 5.8 µM
N=C(N)c1ccc(CNC(=O)Cn2c(-c3ccccc3)c(Cl)nc(NC3CCS(=O)(=O)C3)c2=O)cc1 (centres unmarked) [1507-36] | 0 |  |  | IC50 [1, 3]: 13.8 µM
N=C(N)c1ccc(CNC(=O)Cn2c(-c3ccccc3)c(Cl)nc(NC3CCCCCC3)c2=O)cc1 [1512-16] | 10 |  |  | IC50 [1, 3]: 6.5 µM
N=C(N)c1ccc(CNC(=O)Cn2c(-c3ccccc3)c(Cl)nc(NC3CCS(=O)(=O)C3)c2=O)cc1 (centres unmarked) [1512-19] | 3 |  |  | IC50 [1, 3]: 14.3 µM
N=C(N)c1ccc(CNC(=O)Cn2c(-c3cccc(C(F)(F)F)c3)c(Cl)nc(NCc3ccccc3)c2=O)cc1 [1515-01] |  | 7 | > 30 | 
N=C(N)c1ccc(CNC(=O)Cn2c(-c3cccs3)c(Cl)nc(NCc3ccccc3)c2=O)cc1 [1515-06] |  | 1.7 | > 30 | 
N=C(N)c1ccc(CNC(=O)Cn2c(-c3ccccc3)c(Cl)nc(N3CCC3)c2=O)cc1 [1522-28] |  |  | > 30 | 
Nc1ccc(CNC(=O)Cn2c(Cc3ccccc3)c(Cl)nc(NCCc3ccccc3)c2=O)cn1 [Example 9] |  |  |  | IC50 or % Inhibition Factor Xa (30 µM) [2, 6]: >0 µM
Nc1ccc(CNC(=O)Cn2c(CCc3ccccc3)c(Cl)nc(NCCc3ccccc3)c2=O)cn1 [Example 10, 3-(2-Phenylethylamino)-5-chloro-6-phenethyl-1-(2-amino-5-methylcarboxamidomethylpyridinyl)pyrazinone] |  |  |  | IC50 or % Inhibition Factor Xa (30 µM) [2, 6]: >0 µM
N=C(N)c1ccc(CNC(=O)Cn2c(-c3ccccc3)c(Cl)nc(CN)c2=O)cc1 [Example 18] | 0 |  |  | 
Nc1cccc(-c2c(Cl)nc(NC3CCC3)c(=O)n2CC(=O)NCCCc2ccnc(N)n2)c1 [Example 26] | 5 |  |  | 
N=C(N)c1ccc(CNC(=O)Cn2c(-c3ccccc3)c(Cl)nc(NCCCN)c2=O)cc1 [Example 45] | 9 |  |  | 
N=C(N)c1ccc(CNC(=O)Cn2c(-c3ccccc3)c(Cl)nc(NCCCCN)c2=O)cc1 [Example 46] | 10 |  |  | 
CC(C)Nc1nc(Cl)c(-c2cccc([N+](=O)[O-])c2)n(CC(=O)NCc2ccc(C#N)cc2)c1=O [Example 59] | 2 |  |  | 
CC(=O)Nc1cccc(-c2c(Cl)nc(NCCc3ccccc3)c(=O)n2CC(=O)NCc2ccc(C(=N)N)cc2)c1 [Example 100] |  |  |  | IC50 [2]: > 30 µM
CS(=O)(=O)Nc1cccc(-c2c(Cl)nc(NCCc3ccccc3)c(=O)n2CC(=O)NCc2ccc(C(=N)N)cc2)c1 [Example 101] |  |  |  | IC50 [2]: > 30 µM
N=C(N)c1ccc(CNC(=O)Cn2c(-c3ccccc3)cnc(NS(=O)(=O)c3ccccc3)c2=O)cc1 [Example 105] | 5 |  |  | 
CSc1ccc(N)cc1-c1c(Cl)nc(NC(C)C)c(=O)n1CC(=O)NCc1ccc(C(=N)N)cc1 [compound 76] | 0 |  |  | 
CNc1cccc(-c2c(Cl)nc(NCCc3ccccc3)c(=O)n2CC(=O)NCc2ccc(C(=N)N)cc2)c1 [compound 95] |  |  | > 30 | 

More lines, main results first:

IC50 or % Inhibition Factor Xa (30 µM) ([2]; % inhibition at 30 µM) [%] | IC50 [1, 4] [µM] | IC50 [2, 5] [µM] | SMILES | also measured
0 |  |  | N=C(N)c1ccc(CNC(=O)Cn2c(-c3ccccc3)c(Cl)nc(NCCc3ccncc3)c2=O)cc1 [1471-13] | IC50 [1, 3]: 1.47 µM
31 |  |  | N=C(N)c1ccc(CNC(=O)Cn2c(-c3cccc(Cl)c3)c(Cl)nc(NCc3ccccc3)c2=O)cc1 [1471-25] | 
 | 20 | > 30 | N=C(N)c1ccc(CNC(=O)Cn2c(-c3ccccc3)c(Cl)nc(NCCc3ccc(Br)cc3)c2=O)cc1 [1507-06] | 
 |  | > 30 | N=C(N)c1ccc(CNC(=O)Cn2c(-c3ccccc3)c(Cl)nc(NC(Cc3ccccc3)c3ccccc3)c2=O)cc1 (centres unmarked) [1507-07] | IC50 or % Inhibition TF-VIIa (30 µM) [1]: 25%
 | 3 | > 30 | COc1ccc(CCNc2nc(Cl)c(-c3ccccc3)n(CC(=O)NCc3ccc(C(=N)N)cc3)c2=O)cc1 [1507-11] | 
 | 6.7 | > 30 | COc1cccc(CCNc2nc(Cl)c(-c3ccccc3)n(CC(=O)NCc3ccc(C(=N)N)cc3)c2=O)c1 [1507-12] | 
 | 26.7 | > 30 | COc1ccc(CNc2nc(Cl)c(-c3ccccc3)n(CC(=O)NCc3ccc(C(=N)N)cc3)c2=O)cc1 [1507-13] | 
 | 12 | > 30 | N=C(N)c1ccc(CNC(=O)Cn2c(-c3ccccc3)c(Cl)nc(NCc3ccccc3C(F)(F)F)c2=O)cc1 [1507-15] | 
 |  | > 30 | N=C(N)c1ccc(CNC(=O)Cn2c(-c3ccccc3)c(Cl)nc(NCCc3cccs3)c2=O)cc1 [1507-18] | 
 |  | > 30 | N=C(N)c1ccc(CNC(=O)Cn2c(-c3ccccc3)c(Cl)nc(NCc3cccc4ccccc34)c2=O)cc1 [1507-28] | IC50 or % Inhibition TF-VIIa (30 µM) [1]: 38%
 | 13.4 | > 30 | N=C(N)c1ccc(CNC(=O)Cn2c(-c3ccccc3)c(Cl)nc(NCc3ccc(Br)cc3)c2=O)cc1 [1507-30] | 
 | 3.7 | > 30 | N=C(N)c1ccc(CNC(=O)Cn2c(-c3ccccc3)c(Cl)nc(NC3CC3)c2=O)cc1 [1507-31] | 
 |  | > 30 | CC(C)CNc1nc(Cl)c(-c2ccccc2)n(CC(=O)NCc2ccc(C(=N)N)cc2)c1=O [1507-32] | IC50 [1, 3]: 21.3 µM
 | 8.5 | > 30 | C[C@H](Nc1nc(Cl)c(-c2ccccc2)n(CC(=O)NCc2ccc(C(=N)N)cc2)c1=O)c1ccccc1 [1507-34] | 
 | 16 | > 30 | N=C(N)c1ccc(CNC(=O)Cn2c(-c3ccccc3)c(Cl)nc(NCc3cccc(Cl)c3)c2=O)cc1 [1507-38] | 
 | 11.6 | > 30 | N=C(N)c1ccc(CNC(=O)Cn2c(-c3ccccc3)c(Cl)nc(NCc3cccc(F)c3)c2=O)cc1 [1507-42] | 
 | 7.3 | > 30 | Cc1ccc(CCNc2nc(Cl)c(-c3ccccc3)n(CC(=O)NCc3ccc(C(=N)N)cc3)c2=O)cc1 [1507-45] | 
7 |  |  | CCCCNc1nc(Cl)c(-c2ccccc2)n(CC(=O)NCc2ccc(C(=N)N)cc2)c1=O [1512-14] | IC50 [1, 3]: 3.2 µM
 | 3.8 | > 30 | COc1ccccc1-c1c(Cl)nc(NCc2ccccc2)c(=O)n1CC(=O)NCc1ccc(C(=N)N)cc1 [1515-02] | 
 | 5.2 | > 30 | N=C(N)c1ccc(CNC(=O)Cn2c(-c3ccccc3Cl)c(Cl)nc(NCc3ccccc3)c2=O)cc1 [1515-04] | 
 | 4 | > 30 | COc1cccc(-c2c(Cl)nc(NCc3ccccc3)c(=O)n2CC(=O)NCc2ccc(C(=N)N)cc2)c1 [1515-05] | 
4 |  |  | N=C(N)c1ccc(CNC(=O)Cn2c(-c3ccccc3)c(Cl)nc(NCCN)c2=O)cc1 [Example 44] | 
